What was measured:
Format in all cases: in vivo
[1] = test system: Monochoria vaginalis; test: Herbicidal effect test by treatment during growing period in paddy rice cultivation (Test Example 2); conditions: 120 g/10 a, treated seven days after seeding, 14 days after treatment
Excerpt: (§1) Herbicidal Rate (%)={1−(Average Dry Weight (g) of Plant of Treated Area)/(Average Dry Weight (g) of Plant of Untreated Area)}×100 [Math. 1]
(§2) Wagner pots with an area of 1/10000 ares were filled with a paddy soil, and a compound fertilizer (N:P:K=17:17:17) was mixed after addition of water, followed by soil puddling. Then, Echinochloa crus-galli, broad leaf weeds (Lindernia pyxidaria and Monochoria vaginalis) and Scirpus juncoides, 30 seeds each, were sown in a depth of 0 to 1 cm. Water was poured immediately after seeding, and the water depth was kept at about 3 cm. A subsequent management was conducted in a glass greenhouse. Emulsions prepared using the compounds in Table 4 below according to Formulation Example 5 were diluted with water seven days after seeding, and a certain amount of the water-diluted agent solutions were dropped. A converted amount of the applied active ingredient corresponded to 120 g per 10 ares. The test was conducted in a double system per one agent solution concentration area, and the herbicidal rates (%) were determined by the equation (Math. 1) 14 days after the treatment with the agents. In this regard, the compound numbers in Table 4 are the same as those in Table 1 and Table 2 above.

[2] = test system: Echinochloa crus-galli; test: as above; conditions: 120 g/10 a, treated seven days after seeding, 14 days after treatment
Excerpt: as §1, §2

[3] = test system: Lindernia pyxidaria; test: as above; conditions: 120 g/10 a, treated seven days after seeding, 14 days after treatment
Excerpt: as §1, §2

[4] = test system: Scirpus juncoides; test: as above; conditions: 120 g/10 a, treated seven days after seeding, 14 days after treatment
Excerpt: as §1, §2

[5] = test system: Monochoria vaginalis; test: Herbicidal effect test by treatment of rice paddy soil (Test Example 1); conditions: 120 g/10 a, treated immediately after seeding, 14 days after treatment
Description: (§3) Wagner pots with an area of 1/10000 ares were filled with a paddy soil, and a compound fertilizer (N:P:K=17:17:17) was mixed after water was added, followed by soil puddling. Then, Echinochloa crus-galli, broad leaf weeds (Lindernia pyxidaria and Monochoria vaginalis) and Scirpus juncoides, 30 seeds each, were sown in a depth of 0 to 1 cm. Water was poured immediately after seeding, and the water depth was kept at about 3 cm. A subsequent management was conducted in a glass greenhouse. Immediately after that, emulsions prepared using the compounds in Table 3 below according to Formulation Example 5 were diluted with water, and a certain amount of the water-diluted agent solutions were dropped. A converted amount of the applied active ingredient corresponded to 120 g per 10 ares.
(§4) This test was conducted in a double system per one agent solution concentration area, and the herbicidal rates (%) were determined by the following equation (Math. 1) 14 days after the treatment with the agents.
as §1

[6] = test system: Echinochloa crus-galli; test: as above; conditions: 120 g/10 a, treated immediately after seeding, 14 days after treatment
Description: as §3, §4, §1

[7] = test system: Lindernia pyxidaria; test: as above; conditions: 120 g/10 a, treated immediately after seeding, 14 days after treatment
Description: as §3, §4, §1

[8] = test system: Scirpus juncoides; test: as above; conditions: 120 g/10 a, treated immediately after seeding, 14 days after treatment
Description: as §3, §4, §1

[9] = test system: Amaranthus viridis; test: Herbicidal effect test by treatment of stem and leaf in dry field farming (Test Example 4); conditions: 120 g/10 a, stem and leaf treatment seven days after seeding, 14 days after treatment
Excerpt: (§5) Herbicidal Rate (%)={1−(Average Dry Weight (g) of Plant of Treated Area)/(Average Dry Weight (g) of Plant of Untreated Area)}×100 [Math. 1] Pots with a size of 36 cm^2 were filled with a dry field farming soil (alluvium). The soil of the top layer of 1 cm and seeds of weeds, namely southern crabgrass, Echinochloa crus-galli, Chenopodium album and Amaranthus viridis, 20 seeds each, were evenly mixed, and the top layer was gently pressed. Emulsions prepared using the compounds in Table 6 below according to Formulation Example 5 were diluted with water seven days after seeding, and the water-diluted agent solutions were sprayed to the soil surfaces at a ratio of 100 liters per 10 ares. A converted amount of the applied active ingredient corresponded to 120 g per 10 ares. The herbicidal effects were evaluated by the same standard as that in Test Example 1, 14 days after the treatment with the agents. In this regard, the compound numbers in Table 6 are the same as those in Table 1 and Table 2 above.

[10] = test system: Echinochloa crus-galli; test: as above; conditions: 120 g/10 a, stem and leaf treatment seven days after seeding, 14 days after treatment
Excerpt: as §5

[11] = test system: southern crabgrass; test: as above; conditions: 120 g/10 a, stem and leaf treatment seven days after seeding, 14 days after treatment
Excerpt: as §5

[12] = test system: Chenopodium album; test: as above; conditions: 120 g/10 a, stem and leaf treatment seven days after seeding, 14 days after treatment
Excerpt: as §5

[13] = test system: Amaranthus viridis; test: Herbicidal effect test by treatment of dry field farming soil (Test Example 3); conditions: 120 g/10 a, sprayed one day after seeding, 14 days after treatment
Excerpt: as §5, with “Table 5” for “Table 6”, “water one day” for “water seven days”

[14] = test system: Echinochloa crus-galli; test: as above; conditions: 120 g/10 a, sprayed one day after seeding, 14 days after treatment
Excerpt: as §5, with “Table 5” for “Table 6”, “water one day” for “water seven days”

[15] = test system: southern crabgrass; test: as above; conditions: 120 g/10 a, sprayed one day after seeding, 14 days after treatment
Excerpt: as §5, with “Table 5” for “Table 6”, “water one day” for “water seven days”

[16] = test system: Chenopodium album; test: as above; conditions: 120 g/10 a, sprayed one day after seeding, 14 days after treatment
Excerpt: as §5, with “Table 5” for “Table 6”, “water one day” for “water seven days”

Compound	Herbicidal rate, Monochoria vaginalis [1]	Herbicidal rate, Echinochloa crus-galli [2]	Herbicidal rate, Lindernia pyxidaria [3]	Herbicidal rate, Scirpus juncoides [4]	Herbicidal rate, Monochoria vaginalis [5]	Herbicidal rate, Echinochloa crus-galli [6]	Herbicidal rate, Lindernia pyxidaria [7]	Herbicidal rate, Scirpus juncoides [8]	Herbicidal rate, Amaranthus viridis [9]	Herbicidal rate, Echinochloa crus-galli [10]	Herbicidal rate, southern crabgrass [11]	Herbicidal rate, Chenopodium album [12]	Herbicidal rate, Amaranthus viridis [13]	Herbicidal rate, Echinochloa crus-galli [14]	Herbicidal rate, southern crabgrass [15]	Herbicidal rate, Chenopodium album [16]
COC1CCCC1n1oc(=O)c(Cc2ccccc2N(C(=O)CC(C)C)S(=O)(=O)C(F)(F)F)c1C (stereo not shown) [Compound 119]	90%	100%	80%	90%	100%	100%	100%	100%	90%	90%	80%	90%	60%	90%	90%	60%
COC1CCCC1n1oc(=O)c(Cc2ccccc2N(C(=O)c2ccc(Cl)cc2)S(=O)(=O)C(F)(F)F)c1C (stereo not shown) [Compound 147]	90%	100%	80%	90%	100%	100%	100%	100%	90%	90%	80%	90%	60%	90%	90%	60%
CCOC(=O)N(c1ccccc1Cc1c(C)n(C2CCCCC2OC)oc1=O)S(=O)(=O)C(F)(F)F (stereo not shown) [Compound 190, ethyl N-[2-[[(2-methoxycyclohexyl)-3-methyl-5-oxoisoxazol-4-yl]methyl]phenyl]-N-(trifluoromethylsulfonyl)carbamate]	90%	100%	80%	90%	100%	100%	100%	100%	90%	90%	90%	90%	90%	90%	90%	60%
CCCOC(=O)N(c1ccccc1Cc1c(C)n(C2CCCC2OC)oc1=O)S(=O)(=O)C(F)(F)F (stereo not shown) [Compound 200]	90%	100%	80%	90%	100%	100%	100%	100%	90%	90%	80%	90%	60%	90%	90%	60%
